{"source": "patent US20240109917A1", "about": "(ACTELION PHARMACEUTICALS LTD, priority 2020, published 2024)", "molecular_target": "His6-TEV-PDGFRβ (557-1016) (Homo sapiens (Human), UniProt P09619)", "sequence (P09619 557-1016)": "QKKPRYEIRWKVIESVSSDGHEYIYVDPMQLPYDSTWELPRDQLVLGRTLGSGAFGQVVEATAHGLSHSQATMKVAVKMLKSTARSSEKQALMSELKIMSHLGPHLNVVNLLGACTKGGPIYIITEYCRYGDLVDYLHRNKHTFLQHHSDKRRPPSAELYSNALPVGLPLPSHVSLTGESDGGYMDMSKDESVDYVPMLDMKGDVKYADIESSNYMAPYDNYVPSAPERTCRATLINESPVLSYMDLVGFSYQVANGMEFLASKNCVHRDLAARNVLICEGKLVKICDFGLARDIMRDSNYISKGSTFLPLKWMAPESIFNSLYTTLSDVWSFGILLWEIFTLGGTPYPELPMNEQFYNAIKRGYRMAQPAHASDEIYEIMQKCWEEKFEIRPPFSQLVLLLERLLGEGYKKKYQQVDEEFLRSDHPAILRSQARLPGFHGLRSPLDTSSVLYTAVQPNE", "experiment": "PDGFRβ HTRF Assay", "assay_type": "biochemical", "conditions": "read-out: PDGFR HTRF IC50", "outline": "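HTRF KinEASE-TK readout (665/620 nm ratio) of TK-biotin substrate phosphorylation by His-tagged PDGFRβ kinase domain. Enzyme and inhibitor preincubated 30 min, then ATP/substrate added for 3 h at room temperature before 60 min EDTA quench/detection.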"}
{"compound": "COc1ncc(-c2cn3ncc(C(=O)Nc4cc(NC(=O)CN5CC(C)(C)C5)cnc4C)c3s2)c(OC)n1", "note": "[Example 392, 2-(2,4-dimethoxypyrimidin-5-yl)-N-(5-(2-(3,3-dimethylazetidin-1-yl)acetamido)-2-methylpyridin-3-yl)pyrazolo[5,1-b]thiazole-7-carboxamide]", "values": [{"measurement": "IC50", "value": 500, "unit": "pM"}]}
{"compound": "COCCn1cc(-c2cn3ncc(C(=O)Nc4cc(NC(=O)CN5C[C@H]6CC[C@@H]5C6)cnc4C)c3s2)cn1", "note": "[Example 334, N-(5-(2-((1R,4S)-2-azabicyclo[2.2.1]heptan-2-yl)acetamido)-2-methylpyridin-3-yl)-2-(1-(2-methoxyethyl)-1H-pyrazol-4-yl)pyrazolo[5,1-b]thiazole-7-carboxamide]", "values": [{"measurement": "IC50", "value": 500, "unit": "pM"}]}
{"compound": "Cc1ncc(NC(=O)C2CN(C(C)C)C2)cc1NC(=O)c1cnn2cc(-c3cn(C)nc3C)sc12", "note": "[Example 354, 2-(1,3-dimethyl-1H-pyrazol-4-yl)-N-(5-(1-isopropylazetidine-3-carboxamido)-2-methylpyridin-3-yl)pyrazolo[5,1-b]thiazole-7-carboxamide]", "values": [{"measurement": "IC50", "value": 200, "unit": "pM"}]}
{"compound": "COCC1CN(CC(=O)Nc2cnc(C)c(NC(=O)c3cnn4cc(-c5cnn(C)c5)sc34)c2)CC(C)(C)O1", "note": "(stereo not drawn) [Example 383, N-(5-(2-(6-(methoxymethyl)-2,2-dimethylmorpholino)acetamido)-2-methylpyridin-3-yl)-2-(1-methyl-1H-pyrazol-4-yl)pyrazolo[5,1-b]thiazole-7-carboxamide]", "values": [{"measurement": "IC50", "value": 1000, "unit": "pM"}]}
{"compound": "COCCn1cc(-c2cn3ncc(C(=O)Nc4cc(NC(=O)CN5CCC56CCC6)cnc4C)c3s2)cn1", "note": "[Example 333, N-(5-(2-(1-azaspiro[3.3]heptan-1-yl)acetamido)-2-methylpyridin-3-yl)-2-(1-(2-methoxyethyl)-1H-pyrazol-4-yl)pyrazolo[5,1-b]thiazole-7-carboxamide]", "values": [{"measurement": "IC50", "value": 400, "unit": "pM"}]}
{"compound": "Cc1ncc(NC(=O)[C@@H]2CCCN2C)cc1NC(=O)c1cnn2cc(-c3cnn4c3OCCC4)sc12", "note": "[Example 349, (S)-2-(6,7-dihydro-5H-pyrazolo[5,1-b][1,3]oxazin-3-yl)-N-(2-methyl-5-(1-methylpyrrolidine-2-carboxamido)pyridin-3-yl)pyrazolo[5,1-b]thiazole-7-carboxamide]", "values": [{"measurement": "IC50", "value": 600, "unit": "pM"}]}
{"compound": "Cc1ncc(NC(=O)CN2CCC23CCC3)cc1NC(=O)c1cnn2cc(-c3ccnc(N4CCOCC4)c3)sc12", "note": "[Example 353, N-(5-(2-(1-azaspiro[3.3]heptan-1-yl)acetamido)-2-methylpyridin-3-yl)-2-(2-morpholinopyridin-4-yl)pyrazolo[5,1-b]thiazole-7-carboxamide]", "values": [{"measurement": "IC50", "value": 200, "unit": "pM"}]}
{"compound": "Cc1ncc(NC(=O)CN2CCCC[C@H]2C)cc1NC(=O)c1cnn2cc(-c3cnn(CCO)c3)sc12", "note": "[Example 33, (R)-2-(1-(2-hydroxyethyl)-1H-pyrazol-4-yl)-N-(2-methyl-5-(2-(2-methyl-piperidin-1-yl)acetamido)pyridin-3-yl)pyrazolo[5,1-b]thiazole-7-carboxamide]", "values": [{"measurement": "IC50", "value": 700, "unit": "pM"}]}
{"compound": "COCCn1cc(-c2cn3ncc(C(=O)Nc4cc(NC(=O)CN5CCCC6(CC6)C5)cnc4C)c3s2)cn1", "note": "[Example 335, N-(5-(2-(5-azaspiro[2.5]octan-5-yl)acetamido)-2-methylpyridin-3-yl)-2-(1-(2-methoxyethyl)-1H-pyrazol-4-yl)pyrazolo[5,1-b]thiazole-7-carboxamide]", "values": [{"measurement": "IC50", "value": 400, "unit": "pM"}]}
{"compound": "Cc1ncc(NC(=O)C2CCN(C(C)C)C2)cc1NC(=O)c1cnn2cc(-c3cnn(C)c3C)sc12", "note": "(stereo not drawn) [Example 356, 2-(1,5-dimethyl-1H-pyrazol-4-yl)-N-(5-(1-isopropylpyrrolidine-3-carboxamido)-2-methylpyridin-3-yl)pyrazolo[5,1-b]thiazole-7-carboxamide]", "values": [{"measurement": "IC50", "value": 500, "unit": "pM"}]}
{"compound": "COCCn1cc(-c2cn3ncc(C(=O)Nc4cc(NC(=O)CN5CCC(C6CC6)C5)cnc4C)c3s2)cn1", "note": "(stereo not drawn) [Example 341, N-(5-(2-(3-cyclopropylpyrrolidin-1-yl)acetamido)-2-methylpyridin-3-yl)-2-(1-(2-methoxyethyl)-1H-pyrazol-4-yl)pyrazolo[5,1-b]thiazole-7-carboxamide]", "values": [{"measurement": "IC50", "value": 400, "unit": "pM"}]}
{"compound": "Cc1ncc(S(=O)(=O)NCCN2CCCC2(C)C)cc1NC(=O)c1cnn2cc(-c3cnn(C)c3)sc12", "note": "[Example 359, N-(5-(N-(2-(2,2-dimethylpyrrolidin-1-yl)ethyl)sulfamoyl)-2-methylpyridin-3-yl)-2-(1-methyl-1H-pyrazol-4-yl)pyrazolo[5,1-b]thiazole-7-carboxamide]", "values": [{"measurement": "IC50", "value": 16400, "unit": "pM"}]}
{"compound": "Cc1ncc(NC(=O)CN2CCC[C@H]2C)cc1NC(=O)c1cnn2cc(-c3cnn(C)c3)sc12", "note": "[Example 26, (R)-2-(1-methyl-1H-pyrazol-4-yl)-N-(2-methyl-5-(2-(2-methyl-pyrrolidin-1-yl)acetamido)pyridin-3-yl)pyrazolo[5,1-b]thiazole-7-carboxamide]", "values": [{"measurement": "IC50", "value": 800, "unit": "pM"}]}
{"compound": "Cc1ncc(NC(=O)[C@H]2CCCN2C(C)C)cc1NC(=O)c1cnn2cc(-c3cnn4c3OCCC4)sc12", "note": "[Example 347, (R)-2-(6,7-dihydro-5H-pyrazolo[5,1-b][1,3]oxazin-3-yl)-N-(5-(1-isopropylpyrrolidine-2-carboxamido)-2-methylpyridin-3-yl)pyrazolo[5,1-b]thiazole-7-carboxamide]", "values": [{"measurement": "IC50", "value": 500, "unit": "pM"}]}
{"compound": "COc1ncccc1-c1cn2ncc(C(=O)Nc3cc(NC(=O)CN4C[C@@H](CO)OC(C)(C)C4)cnc3C)c2s1", "note": "[Example 380, (S)—N-(5-(2-(6-(hydroxymethyl)-2,2-dimethylmorpholino)acetamido)-2-methylpyridin-3-yl)-2-(2-methoxypyridin-3-yl)pyrazolo[5,1-b]thiazole-7-carboxamide]", "values": [{"measurement": "IC50", "value": 400, "unit": "pM"}]}
{"compound": "Cc1ncc(NC(=O)CN2C[C@@H](CO)O[C@@H](C)C2)cc1NC(=O)c1cnn2cc(-c3cnn(C)c3)sc12", "note": "(relative stereo) [Example 378, N-(5-(2-(cis-2-(hydroxymethyl)-6-methylmorpholino)acetamido)-2-methylpyridin-3-yl)-2-(1-methyl-1H-pyrazol-4-yl)pyrazolo[5,1-b]thiazole-7-carboxamide]", "values": [{"measurement": "IC50", "value": 800, "unit": "pM"}]}
{"compound": "COCCn1cc(-c2cn3ncc(C(=O)Nc4cc(NC(=O)C5CN(C(C)C)C5)cnc4C)c3s2)cn1", "note": "[Example 342, N-(5-(1-isopropylazetidine-3-carboxamido)-2-methylpyridin-3-yl)-2-(1-(2-methoxyethyl)-1H-pyrazol-4-yl)pyrazolo[5,1-b]thiazole-7-carboxamide]", "values": [{"measurement": "IC50", "value": 600, "unit": "pM"}]}
{"compound": "CCc1ncccc1-c1cn2ncc(C(=O)Nc3cc(NC(=O)CN4CC(C)(C)C4)cnc3C)c2s1", "note": "[Example 391, N-(5-(2-(3,3-dimethylazetidin-1-yl)acetamido)-2-methylpyridin-3-yl)-2-(2-ethylpyridin-3-yl)pyrazolo[5,1-b]thiazole-7-carboxamide]", "values": [{"measurement": "IC50", "value": 900, "unit": "pM"}]}
{"compound": "Cc1ncc(NC(=O)CN2C[C@H](C)O[C@@H](C)C2)cc1NC(=O)c1cnn2cc(-c3cnc(N)c(F)c3)sc12", "note": "(relative stereo) [Example 372, 2-(6-amino-5-fluoropyridin-3-yl)-N-(5-(2-(trans-2,6-dimethylmorpholino)acetamido)-2-methylpyridin-3-yl)pyrazolo[5,1-b]thiazole-7-carboxamide]", "values": [{"measurement": "IC50", "value": 600, "unit": "pM"}]}
{"compound": "COc1ncccc1-c1cn2ncc(C(=O)Nc3cc(NC(=O)CN4CC(C)(OC)C4)cnc3C)c2s1", "note": "[Example 396, N-(5-(2-(3-methoxy-3-methylazetidin-1-yl)acetamido)-2-methylpyridin-3-yl)-2-(2-methoxypyridin-3-yl)pyrazolo[5,1-b]thiazole-7-carboxamide]", "values": [{"measurement": "IC50", "value": 300, "unit": "pM"}]}
{"compound": "Cc1ncc(NC(=O)CN2C[C@H](C)O[C@@H](C)C2)cc1NC(=O)c1cnn2cc(-c3cnn(C4CC4)c3)sc12", "note": "(relative stereo) [Example 382, 2-(1-cyclopropyl-1H-pyrazol-4-yl)-N-(5-(2-(trans-2,6-dimethylmorpholino)acetamido)-2-methylpyridin-3-yl)pyrazolo[5,1-b]thiazole-7-carboxamide]", "values": [{"measurement": "IC50", "value": 600, "unit": "pM"}]}
{"compound": "Cc1ncc(NC(=O)C2CN(C(C)C)C2)cc1NC(=O)c1cnn2cc(-c3cnn(C)c3C)sc12", "note": "[Example 357, 2-(1,5-dimethyl-1H-pyrazol-4-yl)-N-(5-(1-isopropylazetidine-3-carboxamido)-2-methylpyridin-3-yl)pyrazolo[5,1-b]thiazole-7-carboxamide]", "values": [{"measurement": "IC50", "value": 200, "unit": "pM"}]}
{"compound": "Cc1ncc(NC(=O)CN2C[C@H](C)O[C@@H](C)C2)cc1NC(=O)c1cnn2cc(-c3cnn4c3OCCC4)sc12", "note": "(relative stereo) [Example 375, 2-(6,7-dihydro-5H-pyrazolo[5,1-b][1,3]oxazin-3-yl)-N-(5-(2-(trans-2,6-dimethylmorpholino)acetamido)-2-methylpyridin-3-yl)pyrazolo[5,1-b]thiazole-7-carboxamide]", "values": [{"measurement": "IC50", "value": 600, "unit": "pM"}]}
{"compound": "COCCn1cc(-c2cn3ncc(C(=O)Nc4cc(NC(=O)[C@H]5CCCN5C(C)C)cnc4C)c3s2)cn1", "note": "[Example 344, (R)—N-(5-(1-isopropylpyrrolidine-2-carboxamido)-2-methylpyridin-3-yl)-2-(1-(2-methoxyethyl)-1H-pyrazol-4-yl)pyrazolo[5,1-b]thiazole-7-carboxamide]", "values": [{"measurement": "IC50", "value": 4300, "unit": "pM"}]}
{"compound": "COc1ncccc1-c1cn2ncc(C(=O)Nc3cc(NC(=O)CN4CC(C)C4)cnc3C)c2s1", "note": "[Example 405, 2-(2-methoxypyridin-3-yl)-N-(2-methyl-5-(2-(3-methylazetidin-1-yl)acetamido)pyridin-3-yl)pyrazolo[5,1-b]thiazole-7-carboxamide]", "values": [{"measurement": "IC50", "value": 200, "unit": "pM"}]}
{"compound": "Cc1ncc(NC(=O)CN2CCC3(CC2)CC3)cc1NC(=O)c1cnn2cc(-c3cnn(CCO)c3)sc12", "note": "[Example 31, N-(5-(2-(6-azaspiro[2.5]octan-6-yl)acetamido)-2-methylpyridin-3-yl)-2-(1-(2-hydroxyethyl)-1H-pyrazol-4-yl)pyrazolo[5,1-b]thiazole-7-carboxamide]", "values": [{"measurement": "IC50", "value": 600, "unit": "pM"}]}
{"compound": "COc1ncccc1-c1cn2ncc(C(=O)Nc3cc(NC(=O)CN4C[C@H](C)O[C@@H](C)C4)cnc3C)c2s1", "note": "(relative stereo) [Example 384, N-(5-(2-(trans-2,6-dimethylmorpholino)acetamido)-2-methylpyridin-3-yl)-2-(2-methoxypyridin-3-yl)pyrazolo[5,1-b]thiazole-7-carboxamide]", "values": [{"measurement": "IC50", "value": 400, "unit": "pM"}]}
